Assay results taken from US20240376070A1, “GPR52 MODULATOR COMPOUNDS” (NXERA PHARMA UK LIMITED, priority 2021, published 2024).
Values after ≈ are worked out from the molar mass of the structure shown.

Legend:
[1] = Plasma concentration-time data after PO dose of Example 2 in Sprague-Dawley rats; assay type: in vivo; conditions: rat, PO Example 2, all time points
Procedure: (§1) Systemic exposure of Example 2 and Intermediate 6 (Example 39 of Applicant's earlier application PCT/GB2021/050638 (WO2021/181122A1)) were assessed in male Sprague-Dawley rats and male Beagle dogs following oral (per os, PO) administration of Example 2. Plasma concentration-time data (mean values±standard deviation) are detailed in Tables 4 and 5.
(§2) Three male Sprague-Dawley rats (weighing 269-270 g) and three male Beagle dogs (weighing 7-10 kg), were administered a single dose of Example 2 via PO route, using the dose and vehicle specified in Table #. Following dosing, blood samples were taken at several time points (pre-dose, 5 min, 15 min, 30 min, 1 h, 2 h, 4 h, 8 h, 12 h and 24 h in both species, plus additional samples at 32 h and 48 h in dog) via serial bleeding of jugular vein (rat) or cephalic vein (dog), and centrifuged to separate plasma for quantitative bioanalysis of Example 2 and Intermediate 6 by LC-MS/MS.

[2] = Thermodynamic solubility in biorelevant media; assay type: physicochemical; conditions: thermodynamic from solid
Procedure: This experiment was designed to evaluate the thermodynamic solubility of Example 2 in various biorelevant media (Blank Fasted State Simulated Intestinal Fluid (FaSSIF) pH 6.5, FaSSIF pH 6.5 and simulated gastric fluid (SGF) without enzyme pH 1.2).
A 10 mM stock solution of Example 2 in dimethyl sulfoxide (DMSO) was prepared. From the 10 mM stock solution, a 1 mM intermediate solution of Example 2 in DMSO was prepared. A working solution of 1 μM of Example 2 was prepared by diluting the intermediate solution in mobile phase solution (methanol: 2 mM ammonium acetate containing suitable internal standard—carbamazepine). The working solution was serially diluted in mobile phase solution up to 8 linearity points to prepare standard solutions for plotting a calibration curve. The area for each standard solution was analyzed using LCMS/MS. The normalized area values were plotted vs. concentration to achieve a calibration equation.
Example 2 (1 mg) was added to 1 mL of each desired biorelevant media (SGF without enzyme pH 1.2, Blank FaSSIF pH 6.5 and FaSSIF pH 6.5) to achieve a theoretical concentration equivalent to 1 mg/mL.
The resulting solutions were then kept on RotoSpin (shaker) at 50 rpm for 4 hours at room temperature (25° C.). After the incubation period, the content was filtered through a 0.45 μm PVDF (hydrophilic) syringe filter and the filtrate was taken for quantification by LCMS/MS. The filtrate was diluted in mobile phase and subsequently, the area under the curve (AUC) was ascertained for diluted sample using LCMS/MS. From the AUC of test sample the corresponding concentration was calculated using 6 to 8 point linearity/calibration curve.

[3] = Plasma concentration-time data after PO dose of Example 2 in Beagle dogs; assay type: in vivo; conditions: dog, PO Example 2, all time points
Procedure: as §1, §2

human GPR52 = target: T1, human GPR52 (Homo sapiens, UniProt Q9Y2T5); experiment: GPR52 Agonist Functional cAMP Assay; assay type: cell-based; conditions: HEKf cells infected with human GPR52 BacMam, cAMP HTRF, 30 min 37° C.; read-out: pEC50 average (converted)
T1 construct: expressed in transfected cells; host or cells: HEKf suspension cells, BacMam (modified baculovirus) transduction
Procedure: HEKf suspension cells were infected for 24 h with 0.1% v/v human GPR52 expressing BacMam virus, a modified baculovirus designed for mammalian gene expression. Following BacMam infection, cells were pelleted by centrifugation (335 g, 5 min), resuspended in cell freezing medium (Sigma) and frozen at −150° C. until required. On experiment day, 25 nL GPR52 compound dilutions, prepared in DMSO, were stamped onto proxiplates (PerkinElmer) by a LabCyte ECHO acoustic dispenser. Frozen cells were thawed and resuspended in assay stimulation buffer (Cisbio) containing 0.5 mM 3-iso-butyl-1-methylxanthine (IBMX, Sigma) to achieve a density of 2000 cells per well. 10 μl cells were added to assay plates using a Multidrop Combi Reagent Dispenser (ThermoFisher) before centrifugation (1 min). Cells were incubated with compounds at 37° C. for 30 min prior to addition of cAMP detection reagents (HiRange cAMP kit, Cisbio) which were prepared according to the manufacturer's instructions. Plates were shaken for 1 h at room temperature before reading on a PHERAstar FS plate reader (BMG Labtech) using standard HTRF settings. HTRF ratios were obtained by dividing the acceptor emissions (665 nm) by the donor emissions (620 nm) and multiplying by 10,000. […] Further pharmacokinetic data for Intermediate 6 is provided in Applicant's earlier application PCT/GB2021/050638 (see Example 39).

[4] = Rat IV brain penetration (Kp,uu); assay type: in vivo, Sprague-Dawley rats; conditions: male, Sprague-Dawley, brain and plasma, IV 1 mg/kg, n = 3, unbound brain-to-plasma ratio
Procedure: Plasma and brain exposure were evaluated to assess the brain penetration of Intermediate 6 (Example 39 of WO2021/181122A1), following IV administration. Unbound brain-to-plasma ratio (Kp,uu) was calculated, as detailed in Table 7, following experimental determination of binding in rat plasma and brain homogenate.
For brain penetration assessment, male Sprague-Dawley rats (n=3) were administered a single 1 mg/kg dose (formulated in 10% DMAC+10% Solutol HS15+80% saline) via the IV route. After 10 min post-dose, animals were sacrificed and brains extracted, homogenised with 2 volumes (w/v) of 50 mM sodium phosphate buffer (pH 7.4), and analysed by LC-MS/MS. Blood samples were removed at the same time point via tail vein bleed, centrifuged and the plasma analysed by LC-MS/MS.
To permit calculation of unbound brain-to-plasma ratio (Kp,uu), test compound binding in rat plasma and brain homogenate was performed, using Rapid Equilibrium Dialysis (RED). […]
After incubation, the contents of each plasma/brain and buffer compartment were removed and mixed with equal volumes of control dialysed buffer or plasma/brain to maintain matrix similarity for analysis. […] Fraction unbound (Fu) in plasma and brain was calculated using the following formula, then used to correct total plasma and brain concentrations to derive the Kp,uu:

Rat IV pharmacokinetics = assay type: in vivo, Sprague-Dawley rats; conditions: male, Sprague-Dawley, plasma, IV 1 mg/kg, n = 3
Procedure: The pharmacokinetic profiles of Intermediate 6 (Example 39 of WO2021/181122A1) were assessed in male Sprague-Dawley rats via intravenous (IV) delivery. Pharmacokinetic data (mean values±standard deviation) for Intermediate 6 (Example 39 of WO2021/181122A1) are detailed in Table 7.
For pharmacokinetic analysis, groups of three male Sprague-Dawley rats, ranging in weight between 200 and 230 g, were administered a single dose of Intermediate 6 (Example 39 of WO2021/181122A1) via IV, using the dose, dose volume and vehicle specified in Table 7. Following dosing, blood samples were taken at several time points (pre-dose, 2 min, 5 min, 15 min, 30 min, 1 h, 3 h, 6 h, 12 h and 24 h for IV) via serial tail vein bleeds, and centrifuged to separate plasma for analysis by LC-MS/MS. WinNonlin v8.2 statistics software (Pharsight Corporation, California, USA) was used to generate pharmacokinetic parameters using non-compartmental analysis.

[5] = tested on: caffeine-induced hyperlocomotor response; experiment: Caffeine-induced locomotor activity in rat; assay type: in vivo, Sprague-Dawley rats; conditions: rat, 0.1, 0.3, 1 and 3 mg/kg PO, 60 min before caffeine 15 mg/kg s.c., 2 h activity
From the text: Caffeine, a non-selective adenosine receptor antagonist, is a psychostimulant which increases rodent locomotor activity principally via blockade of A2A receptors (Br. J. Pharmacol., 2000, 129, 1465). These receptors are densely expressed on the terminals of GABAergic striatopallidal neurons in the indirect pathway of the basal ganglia, in which dopamine D2 receptors are co-expressed (J. Comp. Neurol., 1998, 401, 163; J. Comp. Neurol., 2001, 431, 331). Tonic activation of A2A receptors decreases the affinity of D2 receptors to dopamine and antagonism of A2A receptors facilitates dopaminergic signalling (Curr. Pharm. Des., 2008, 14, 1468). […] Male Sprague-Dawley rats (200-250 g) were housed in groups with a 12 h light/dark cycle (lights on at 07.00), at an ambient temperature of 21±2° C. and with standard pelleted diet and water ad libitum. Testing was carried out in the light phase. On the day of the experiment, animals were habituated to the locomotor cages for a 60-minute period. Subsequently, they were dosed with vehicle or Intermediate 6 (Example 39 of WO2021/181122A1) (0.1, 0.3, 1 and 3 mg/kg) by the oral route and returned to the appropriate locomotor cage. […] Locomotor activity was assessed for a 2 h period after caffeine treatment. […] SEMs were calculated from the residuals of the statistical model. […]

T1 sequence (Q9Y2T5 whole entry): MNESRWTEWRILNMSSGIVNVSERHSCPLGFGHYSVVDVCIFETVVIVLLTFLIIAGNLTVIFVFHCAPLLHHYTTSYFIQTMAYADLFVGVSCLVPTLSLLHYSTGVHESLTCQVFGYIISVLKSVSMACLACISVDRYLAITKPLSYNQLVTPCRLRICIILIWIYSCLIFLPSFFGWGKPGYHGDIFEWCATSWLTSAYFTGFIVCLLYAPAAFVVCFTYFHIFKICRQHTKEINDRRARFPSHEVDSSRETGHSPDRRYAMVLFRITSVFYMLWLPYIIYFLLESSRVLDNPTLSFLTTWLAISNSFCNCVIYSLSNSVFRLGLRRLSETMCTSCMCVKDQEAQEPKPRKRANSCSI

With `Cc1nn(-c2cc(Cc3cc(F)cc(C(F)(F)F)c3)ccn2)c(COP(=O)(O)O)c1C(N)=O` [Example 2] the “Plasma concentrations of Example 2” value [1] was less than 1 ng/mL, the solubility at 4 h ([2]; SGF without enzyme, simulated gastric fluid, SGF, pH 1.2, 25° C.) was 13.1 µM (≈ 6.38 µg/mL) and the solubility at 4 h ([2]; fassgf or other biorelevant, Blank FaSSIF, pH 6.5, 25° C.) was 1890 µM (≈ 922 µg/mL). The solubility at 4 h ([2]; FaSSIF, pH 6.5, 25° C.) was 1830 µM (≈ 894 µg/mL) and the “Plasma concentrations of Example 2” value [3] was less than 1 ng/mL.
Compound `Cc1nn(-c2cc(Cc3cc(F)cc(C(F)(F)F)c3)ccn2)c(CO)c1C(N)=O` [Intermediate 6, 1-(4-(3-fluoro-5-(trifluoromethyl)benzyl)pyridin-2-yl)-5-(hydroxymethyl)-3-methyl-1H-pyrazole-4-carboxamide] has an EC50 (human GPR52) of 6.31 nM, a Kp uu at 10 min [4] of 0.42 ± 0.08 and a clearance (Rat IV pharmacokinetics) of 8.8 ± 1.1 mL/min/kg. The “effect on caffeine-induced hyperlocomotor response” value [5] was “dose-dependent reduction of the caffeine-induced hyperlocomotor response, reaching statistical significance at 1 and 3 mg/kg”.
In the case of `Cc1nn(-c2cc(Cc3cc(F)cc(C(F)(F)F)c3)ccn2)c(CO)c1C(=O)NCCO` [Intermediate 7, 1-(4-(3-fluoro-5-(trifluoromethyl)benzyl)pyridin-2-yl)-N-(2-hydroxyethyl)-5-(hydroxymethyl)-3-methyl-1H-pyrazole-4-carboxamide], the EC50 (human GPR52) is reported as 2.51 nM.
For `Cc1nn(-c2ccnc(Cc3cc(F)cc(C(F)(F)F)c3)c2)c(CO)c1C(N)=O` [Intermediate 10, 1-(2-(3-fluoro-5-(trifluoromethyl)benzyl)pyridin-4-yl)-5-(hydroxymethyl)-3-methyl-1H-pyrazole-4-carboxamide], the EC50 (human GPR52) was 31.6 nM.
`Cc1nn(-c2ccnc(Cc3cc(F)cc(C(F)(F)F)c3)c2)c(CO)c1C(=O)NCCO` [Intermediate 11, 1-(2-(3-fluoro-5-(trifluoromethyl)benzyl)pyridin-4-yl)-N-(2-hydroxyethyl)-5-(hydroxymethyl)-3-methyl-1H-pyrazole-4-carboxamide] showed an EC50 (human GPR52) of 31.6 nM.
In the case of `CNC(=O)c1c(C)nn(-c2cc(Cc3cc(F)cc(C(F)(F)F)c3)ccn2)c1CO` [Intermediate 12, 1-(4-(3-fluoro-5-(trifluoromethyl)benzyl)pyridin-2-yl)-5-(hydroxymethyl)-N,3-dimethyl-1H-pyrazole-4-carboxamide], the EC50 (human GPR52) is reported as 10 nM.
Work on `Cc1nn(-c2cc(Cc3cc(F)cc(C(F)F)c3)ccn2)c(CO)c1C(N)=O` [Intermediate 16, 1-(4-(3-(difluoromethyl)-5-fluorobenzyl)pyridin-2-yl)-5-(hydroxymethyl)-3-methyl-1H-pyrazole-4-carboxamide] yielded an EC50 (human GPR52) of 3.98 nM.
